Results from patent publication US20240150293A1, “SPIROCYCLOHEXANE DERIVATIVES, PHARMACEUTICAL COMPOSITIONS CONTAINING THEM AND THEIR USES AS ANTI-APOPTOTIC INHIBITORS” (LES LABORATOIRES SERVIER, priority 2021, published 2024).
Where two headings read alike, the source gives them in different places.

Tests used:
[1] = biological target: Cy5-labelled Mcl1 (amino acids 171-321) C286S protein (UniProtKB Q07820) (Homo sapiens (Human), UniProt Q07820, C286S); assay: Inhibition of Mcl-1 by the fluorescence quenching assay (Example A, Method B); assay type: binding
Sequence of Cy5-labelled Mcl1 (amino acids 171-321) C286S protein (Q07820 171-321 C286S): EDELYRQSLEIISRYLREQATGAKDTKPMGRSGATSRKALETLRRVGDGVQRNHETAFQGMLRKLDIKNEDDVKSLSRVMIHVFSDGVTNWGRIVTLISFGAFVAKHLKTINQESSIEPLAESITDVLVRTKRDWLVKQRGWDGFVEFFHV
How it was run: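 Eleven-point compound series incubated 2 h at room temperature with 1 nM Cy5-tagged protein and quencher-labelled PUMA peptide at 10, 20 or 400 nM in HEPES/NaCl/Tween 20, pH 7.4, 5% DMSO. IC50 for 50% fluorescence increase by 4-parameter fit, then Ki derived (complete cKi or estimated eKi).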

[2] = system: H929 multiple myeloma tumor line; assay: In vitro cytotoxicity, MTT assay (Example B, Method A); assay type: cell-based; settings: H929 cells, 48 hours exposure, read-out: C50
Procedure: The cytotoxicity studies were carried out on the H929 multiple myeloma tumor line.
The cells are distributed onto microplates and exposed to the test compounds for 48 hours. The cell viability is then quantified by a colorimetric assay, the Microculture Tetrazolium Assay (Carmichael et al, Cancer Res. 1987, 47, 939-942).
The results are expressed in C50 which means concentration corresponding to […] of effect/inhibition.

[3] = biological target: Mcl-1 protein (UniProtKB Q07820) (Homo sapiens (Human), UniProt Q07820); assay: Inhibition of Mcl-1 by the fluorescence polarisation assay (Example A, Method A); assay type: binding; settings: fluorescence polarization assay
Sequence of Mcl-1 protein (Q07820 whole entry): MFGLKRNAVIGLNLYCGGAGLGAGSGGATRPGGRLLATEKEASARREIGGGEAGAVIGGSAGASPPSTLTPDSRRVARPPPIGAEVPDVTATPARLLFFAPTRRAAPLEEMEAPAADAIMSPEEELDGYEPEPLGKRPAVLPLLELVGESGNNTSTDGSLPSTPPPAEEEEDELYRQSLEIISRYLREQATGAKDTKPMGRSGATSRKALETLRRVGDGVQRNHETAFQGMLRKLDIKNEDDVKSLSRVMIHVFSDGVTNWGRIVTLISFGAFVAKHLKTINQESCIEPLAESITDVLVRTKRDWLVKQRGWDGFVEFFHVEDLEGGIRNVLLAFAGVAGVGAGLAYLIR
How it was run: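 Protein (5 nM) and fluorescein-tagged peptide tracer (1 nM) incubated with 11-point compound series for 2 h at room temperature in HEPES/NaCl/Tween 20 buffer, pH 7.4, 5% DMSO. Displacement read as decrease in polarisation; IC50 fitted by 4-parameter logistic, converted to Ki (cKi or eKi).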

Structure (SMILES) | Ki [1] [nM] | Ki [3] [nM] | IC50 ([2]; Homo sapiens, NCI-H929, 48 h) [nM] | IC50 [2] [nM]
O=C(O)[C@]1(Nc2cccc(Cl)c2)CC[C@@]2(CC1)c1ccccc1CC2CC(COc1ccnc2c1CCC2)COc1ccnc2c1CCC2 (single isomer, unassigned) [Example 497, (1r,4r)-4-(3-chloroanilino)-2′-(3-[(6,7-dihydro-5H-cyclopenta[b]pyridin-4-yl)oxy]-2-{[(6,7-dihydro-5H-cyclopenta[b]pyridin-4-yl)oxy]methyl}propyl)-2′,3′-dihydrospiro[cyclohexane-1,1′-indene]-4-carboxylic acid] | 1.34 | – | – | 1220
O=C(O)[C@]1(Nc2cccc(Cl)c2)CC[C@@]2(CC1)c1ccccc1CC2CC(COc1ccnc2c1CCC2)COc1ccnc2c1CCC2 (single isomer, unassigned) [Example 498, (1r,4r)-4-(3-chloroanilino)-2′-(3-[(6,7-dihydro-5H-cyclopenta[b]pyridin-4-yl)oxy]-2-{[(6,7-dihydro-5H-cyclopenta[b]pyridin-4-yl)oxy]methyl}propyl)-2′,3′-dihydrospiro[cyclohexane-1,1′-indene]-4-carboxylic acid] | 0.769 | – | – | 436
O=C(O)[C@]1(Nc2cccc(Cl)c2)CC[C@]2(CC1)C(CC(F)COc1ccnc3c1CCCC3)=Cc1ccccc12 (single isomer, unassigned) [Example 505, (1r,4r)-4-(3-chloroanilino)-2′-{2-fluoro-3-[(5,6,7,8-tetrahydroquinolin-4-yl)oxy]propyl}spiro[cyclohexane-1,1′-indene]-4-carboxylic acid] | 23.4 | – | 2380 | –
O=C(O)[C@]1(Nc2cccc(Cl)c2)CC[C@]2(CC1)C(CC(F)COc1ccnc3c1CCCC3)=Cc1ccccc12 (single isomer, unassigned) [Example 506, (1r,4r)-4-(3-chloroanilino)-2′-{2-fluoro-3-[(5,6,7,8-tetrahydroquinolin-4-yl)oxy]propyl}spiro[cyclohexane-1,1′-indene]-4-carboxylic acid] | 49.2 | – | – | 2790
C[C@@H]1CCCc2nccc(OCC(F)CC3Cc4ccccc4[C@]34CC[C@@](Nc3cccc(Cl)c3)(C(=O)O)CC4)c21 (single isomer, unassigned) [Example 507] | 8.76 | – | – | 2240
C[C@@H]1CCCc2nccc(OCC(F)CC3Cc4ccccc4[C@]34CC[C@@](Nc3cccc(Cl)c3)(C(=O)O)CC4)c21 (single isomer, unassigned) [Example 508] | 20.3 | – | – | 3640
C[C@@H]1CCCc2nccc(OCC(F)CC3Cc4ccccc4[C@]34CC[C@@](Nc3cccc(Cl)c3)(C(=O)O)CC4)c21 (single isomer, unassigned) [Example 509] | 5.3 | – | – | 999
C[C@@H]1CCCc2nccc(OCC(F)CC3Cc4ccccc4[C@]34CC[C@@](Nc3cccc(Cl)c3)(C(=O)O)CC4)c21 (single isomer, unassigned) [Example 510] | 1.51 | – | – | 252
C[C@@H]1CCCc2nccc(OCC(CF)CC3=Cc4ccccc4[C@]34CC[C@@](Nc3cccc(Cl)c3)(C(=O)O)CC4)c21 (single isomer, unassigned) [Example 514] | 1.84 | – | – | 320
C[C@@H]1CCCc2nccc(OCC(CF)CC3=Cc4ccccc4[C@]34CC[C@@](Nc3cccc(Cl)c3)(C(=O)O)CC4)c21 (single isomer, unassigned) [Example 515] | 26.4 | – | – | 2390
C[C@@H]1CCCc2nccc(OCC(CC3=Cc4ccccc4[C@]34CC[C@@](Nc3cccc(Cl)c3)(C(=O)O)CC4)C(F)F)c21 (single isomer, unassigned) [Example 516] | 28 | – | – | 3860
C[C@@H](COc1ccnc2occc12)C[C@H]1Cc2ccccc2[C@]12CC[C@@](Nc1cccc(Cl)c1)(C(=O)O)CC2 [Example 606, (1r,2′S,4S)-4-(3-chloroanilino)-2′-{(2R)-3-[(furo[2,3-b]pyridin-4-yl)oxy]-2-methylpropyl}-2′,3′-dihydrospiro[cyclohexane-1,1′-indene]-4-carboxylic acid] | – | 77.3 | 2140 | –

More lines, main results first:

Ki [1] [nM] | Ki [3] [nM] | Structure (SMILES) | IC50 ([2]; Homo sapiens, NCI-H929, 48 h) [nM] | IC50 [2] [nM]
41.6 | – | C[C@H]1Cc2c(OC[C@H](C)C[C@H]3Cc4ccccc4[C@]34CC[C@@](Nc3cccc(Cl)c3)(C(=O)O)CC4)ccnc2[C@H](O)C1 (racemic) [Example 670, (1r,2′S,4S)-4-(3-chloroanilino)-2′-[(2R)-3-{[(6RS,8SR)-8-hydroxy-6-methyl-5,6,7,8-tetrahydroquinolin-4-yl]oxy}-2-methylpropyl]-2′,3′-dihydrospiro[cyclohexane-1,1′-indene]-4-carboxylic acid] | 3600 | –
– | 5.3 | C[C@@H](COc1ccnc2c1CCCCC2)C[C@H]1Cc2ccccc2[C@]12CC[C@@](Nc1cccc(Cl)c1)(C(=O)O)CC2 [Example 633, (1r,2′S,4S)-4-(3-chloroanilino)-2′-{(2R)-2-methyl-3-[(6,7,8,9-tetrahydro-5H-cyclohepta[b]pyridin-4-yl)oxy]propyl}-2′,3′-dihydrospiro[cyclohexane-1,1′-indene]-4-carboxylic acid] | 371 | –
– | 86.8 | C[C@@H](COc1ccnc2c1CCCCC2O)C[C@H]1Cc2ccccc2[C@]12CC[C@@](Nc1cccc(Cl)c1)(C(=O)O)CC2 (stereo partly drawn) [Example 634, (1r,2′S,4S)-4-(3-chloroanilino)-2′-{(2R)-3-[(9-hydroxy-6,7,8,9-tetrahydro-5H-cyclohepta[b]pyridin-4-yl)oxy]-2-methylpropyl}-2′,3′-dihydrospiro[cyclohexane-1,1′-indene]-4-carboxylic acid] | 4230 | –
– | 44.8 | C[C@@H](COc1ccnc2c1CCCO2)C[C@H]1Cc2ccccc2[C@]12CC[C@@](Nc1cccc(Cl)c1)(C(=O)O)CC2 [Example 635, (1r,2′S,4S)-4-(3-chloroanilino)-2′-{(2R)-3-[(3,4-dihydro-2H-pyrano[2,3-b]pyridin-5-yl)oxy]-2-methylpropyl}-2′,3′-dihydrospiro[cyclohexane-1,1′-indene]-4-carboxylic acid] | 4590 | –
– | 17.9 | CC1CCc2nccc(OC[C@H](C)C[C@H]3Cc4ccccc4[C@]34CC[C@@](Nc3cccc(Cl)c3)(C(=O)O)CC4)c2C1 (stereo partly drawn) [Example 651, (1r,2′S,4S)-4-(3-chloroanilino)-2′-{(2R)-2-methyl-3-[(6-methyl-5,6,7,8-tetrahydroquinolin-4-yl)oxy]propyl}-2′,3′-dihydrospiro[cyclohexane-1,1′-indene]-4-carboxylic acid] | 1260 | –
– | 20.3 | C[C@@H](COc1ccnc2c1CC(C)(C)CC2)C[C@H]1Cc2ccccc2[C@]12CC[C@@](Nc1cccc(Cl)c1)(C(=O)O)CC2 [Example 652, (1r,2′S,4S)-4-(3-chloroanilino)-2′-{(2R)-3-[(6,6-dimethyl-5,6,7,8-tetrahydroquinolin-4-yl)oxy]-2-methylpropyl}-2′,3′-dihydrospiro[cyclohexane-1,1′-indene]-4-carboxylic acid] | 4710 | –
– | 32.3 | C[C@@H](COc1ccnc2c1CCC[C@@H]2O)C[C@H]1Cc2ccccc2[C@]12CC[C@@](Nc1cccc(Cl)c1)(C(=O)O)CC2 [Example 669, (1r,2′S,4S)-4-(3-chloroanilino)-2′-[(2R)-3-{[(8S)-8-hydroxy-5,6,7,8-tetrahydroquinolin-4-yl]oxy}-2-methylpropyl]-2′,3′-dihydrospiro[cyclohexane-1,1′-indene]-4-carboxylic acid] | 1520 | –
